The text below walks through data of article PMC2628638, “Catalytic inhibition of topoisomerase II by a novel rationally designed ATP-competitive purine analogue” (BMC Chemical Biology, 2009).

Broadly, the IC50 is the concentration at which inhibition is half-maximal. Read a high IC50 as lower potency.

For assay [1], the target named is CDK1/CycB (Homo sapiens, UniProt P06493). As to the kind of experiment: Radiometric filter binding kinase assay. Format: biochemical. From the text:
(§1) Based on homology structural models of the target, a purine scaffold was designed interactively using the Macromodel modeling software. The designed purine scaffold was subsequently used as a substructure query to search the Novartis compound collection. Around 50 molecules were retrieved in this manner and screened in an ATPase assay using purified full length tagged human topoisomerase II alpha. […] Subsequently, we carried out kinetic analysis with QAP 1 in order to corroborate the mode of action. […] The data were analyzed by non-linear regression analysis using the equations corresponding to competitive, uncompetitive, and mixed inhibition (see Methods) and a statistical analysis (F-test; p ≤ 0.05) was carried out to identify the best model. […] A linearized representation (Eady-Hofstee) of one of these experiments is depicted in Figure 1D. To confirm the mode of action of QAP 1, inhibition studies were also carried out in the presence of different concentration of the inhibitor at different ATP concentrations and the IC50 values were determined. […] Next, QAP 1 was tested against a panel of kinases in a radiometric assay. With the exception of subtle inhibition of the Ret and c-Src tyrosine kinases no effect of the compound was observed on other kinases in the panel, even at the highest concentration tested (Table 1). Thus, QAP 1 is a relatively potent inhibitor of topoisomerase II ATPase function with fairly good selectivity over various serine/threonine/tyrosine protein kinases. To test if QAP 1 inhibited topoisomerase II DNA strand passage activity, nuclear extracts of HL-60 leukemic cells were incubated with catenated kDNA in the presence of increasing concentrations of QAP 1.

Assay [2] addresses c-Met (Homo sapiens, UniProt P08581). As to the kind of experiment: Radiometric filter binding kinase assay. In kind it is biochemical.
Source text: as §1

Assay [3] deals with Ret (Homo sapiens, UniProt P07949). As to the kind of experiment: Radiometric filter binding kinase assay. The following applies: mean of two independent experiments ± SD. Format: biochemical.
Source text: as §1

The target in assay [4] is Fak (Homo sapiens, UniProt Q05397). Put plainly: Radiometric filter binding kinase assay. In kind it is biochemical.
Source text: as §1

Assay [5] deals with BRAF-V600E (Homo sapiens, UniProt P15056, V600E). Put plainly: Radiometric filter binding kinase assay. Format: biochemical.
Source text: as §1

Assay [6] concerns the target Flt-3 (Homo sapiens, UniProt P36888). As to the kind of experiment: Radiometric filter binding kinase assay. Format: biochemical.
Source text: as §1

The target of assay [7] is Jak2 (Homo sapiens, UniProt O60674). As to the kind of experiment: Radiometric filter binding kinase assay. Format: biochemical.
Source text: as §1

For assay [8], the target named is FGFR3-K560E. Put plainly: Radiometric filter binding kinase assay. Format: biochemical.
Source text: as §1

Assay [9] has as its target Tek (Homo sapiens, UniProt Q02763). Put plainly: Radiometric filter binding kinase assay. In kind it is biochemical.
Source text: as §1

For assay [10], the target named is EphB4 (Homo sapiens, UniProt P54760). Put plainly: Radiometric filter binding kinase assay. Format: biochemical.
Source text: as §1

In assay [11] the target is PDK1 (Homo sapiens, UniProt O15530). As to the kind of experiment: Radiometric filter binding kinase assay. In kind it is biochemical.
Source text: as §1

Assay [12] concerns the target KDR (Homo sapiens, UniProt P35968). As to the kind of experiment: Radiometric filter binding kinase assay. In kind it is biochemical.
Source text: as §1

The target in assay [13] is c-Src (Homo sapiens, UniProt P12931). Put plainly: Radiometric filter binding kinase assay. In kind it is biochemical. The following applies: mean of two independent experiments ± SD.
Source text: as §1

For assay [14], the target named is HER-1 (Homo sapiens, UniProt P00533). As to the kind of experiment: Radiometric filter binding kinase assay. In kind it is biochemical.
Source text: as §1

Assay [15] addresses IGF-1R (Homo sapiens, UniProt P08069). Put plainly: Radiometric filter binding kinase assay. In kind it is biochemical.
Source text: as §1

The target in assay [16] is c-Abl-T315I (Homo sapiens, UniProt P00519, T315I). Put plainly: Radiometric filter binding kinase assay. In kind it is biochemical.
Source text: as §1

The target in assay [17] is c-Abl (Homo sapiens, UniProt P00519). Put plainly: Radiometric filter binding kinase assay. In kind it is biochemical.
Source text: as §1

For assay [18], the target named is Axl (Homo sapiens, UniProt P30530). As to the kind of experiment: Radiometric filter binding kinase assay. Format: biochemical.
Source text: as §1

The target of assay [19] is PKB. As to the kind of experiment: Radiometric filter binding kinase assay. In kind it is biochemical.
Source text: as §1

Assay [20] deals with T1, topoisomerase II beta (Homo sapiens, UniProt Q02880).
T1 construct: endogenous in cells; host or cells: HL-60 nuclear extract
Put plainly: Affinity precipitation with biotinylated purine analogue 2 from HL-60 nuclear extracts. The following applies: 1 μM biotinylated analogue 2; competitor in excess (10 μM), QAP 1 also at equimolar concentration. Format: binding. Here is the method:
Topoisomerase II α and β were affinity precipitated with biotinylated inhibitor as follows. Exponentially growing HL-60 cells were collected on ice and incubated with hypotonic buffer (10 mM HEPES pH 7.5, 1.5 mM MgCl2, 10 mM KCl, 0.5 mM DTT, 0.5 mM PMSF, 1× protease inhibitor cocktail (Complete Mini, Roche Diagnostics GmbH)) for 15 minutes, then 0.6% v/v NP-40 was added and cells were disrupted using a Dounce homogenizer. Lysates were transferred to 1.5 ml Protein LoBind Eppendorf tubes and nuclei were collected after centrifugation at 8000 rpm for 10 minutes and washed twice with hypotonic buffer. To extract and release chromatin associated topoisomerase II nuclei were incubated for 30 minutes in DNAse buffer (20 mM Tris HCl pH 7.5, 5 mM MgCl2, 1 mM CaCl2, 25 mM NaCl, 0.5 mM EDTA, 1% NP-40, 1 mM DTT, 1 × protease inhibitor cocktail, 0.1 mM PMSF) containing 40 U DNAse I (Roche Diagnostics GmbH) followed by addition of twice concentrated nuclear extraction buffer (20 mM HEPES pH 7.5, 3 mM MgCl2, 20 mM KCl, 50 mM β-glycerophosphate, 840 mM NaCl, 1 mM EDTA, 50 mM PNPP, 1 mM DTT, 1 mM PMSF) and rotation for 1 h in the coldroom. The soluble fraction was obtained following centrifugation at 13000 rpm for 15 minutes. 25 μg nuclear extract were used for the affinity precipitation. The salt concentration was adjusted to 150 mM with nuclear extraction buffer (without NaCl) and the sample volume was toped off to 200 μl with precipitation buffer (50 mM HEPES pH 7.4, 150 mM NaCl, 25 mM β-glycerophosphate, 25 mM NaF, 5 mM EGTA, 1 mM EDTA, 15 mM PPI, 1 mM PMSF). Compounds were preincubated for 30 minutes prior addition of biotinylated purine analogue 2 for 2 h. Streptavidin agarose beads (Novagen, 69203) were washed twice with PBS, blocked for 30 minutes with PBS containing 1% BSA, washed twice with PBS and finally with precipitation buffer. 40 μl equilibrated streptavidin agarose beads were added to the sample and incubation was continued for 1 h. Beads were pelleted by centrifugation at 7000 rpm for 5 minutes and washed thrice with precipitation buffer. During the last wash the beads were transferred to a new tube and the bound fraction was released by boiling for 5 minutes in Laemmli sample buffer. Topoisomerase II α and β were detected by Western blot as described below.

Chain of HER-1 (P00533 25-1210, species assumed): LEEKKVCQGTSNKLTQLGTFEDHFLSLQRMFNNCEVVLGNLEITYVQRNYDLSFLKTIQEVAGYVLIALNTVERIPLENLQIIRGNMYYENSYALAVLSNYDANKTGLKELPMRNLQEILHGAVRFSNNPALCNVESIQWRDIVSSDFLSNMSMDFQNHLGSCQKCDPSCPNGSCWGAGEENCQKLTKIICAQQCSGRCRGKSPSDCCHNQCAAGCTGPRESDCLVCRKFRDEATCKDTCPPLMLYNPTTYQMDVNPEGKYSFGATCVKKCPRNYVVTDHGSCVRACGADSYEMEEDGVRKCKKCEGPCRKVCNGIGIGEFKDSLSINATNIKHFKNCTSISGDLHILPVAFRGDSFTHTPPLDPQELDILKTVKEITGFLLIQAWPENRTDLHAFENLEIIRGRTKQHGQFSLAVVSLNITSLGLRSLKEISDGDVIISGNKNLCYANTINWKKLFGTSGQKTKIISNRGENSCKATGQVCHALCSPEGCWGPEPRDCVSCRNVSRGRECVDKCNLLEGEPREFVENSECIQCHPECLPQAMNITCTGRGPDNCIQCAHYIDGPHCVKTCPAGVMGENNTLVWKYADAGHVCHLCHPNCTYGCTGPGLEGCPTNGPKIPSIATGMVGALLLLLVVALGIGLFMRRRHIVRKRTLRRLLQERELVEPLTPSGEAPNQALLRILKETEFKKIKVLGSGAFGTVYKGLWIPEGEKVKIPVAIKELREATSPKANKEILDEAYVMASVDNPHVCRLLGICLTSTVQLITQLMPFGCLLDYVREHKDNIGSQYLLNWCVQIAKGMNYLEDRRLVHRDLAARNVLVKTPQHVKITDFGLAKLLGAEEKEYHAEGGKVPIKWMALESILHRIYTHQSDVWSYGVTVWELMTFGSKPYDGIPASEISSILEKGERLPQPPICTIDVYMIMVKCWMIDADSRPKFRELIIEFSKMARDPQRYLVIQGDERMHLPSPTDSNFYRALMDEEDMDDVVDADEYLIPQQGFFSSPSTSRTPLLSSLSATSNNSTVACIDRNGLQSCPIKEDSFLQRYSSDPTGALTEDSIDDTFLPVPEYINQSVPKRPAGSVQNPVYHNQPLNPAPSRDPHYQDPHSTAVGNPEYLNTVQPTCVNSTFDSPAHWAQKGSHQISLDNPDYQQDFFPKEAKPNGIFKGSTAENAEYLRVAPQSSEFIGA
Chain of c-Met (P08581 25-1390): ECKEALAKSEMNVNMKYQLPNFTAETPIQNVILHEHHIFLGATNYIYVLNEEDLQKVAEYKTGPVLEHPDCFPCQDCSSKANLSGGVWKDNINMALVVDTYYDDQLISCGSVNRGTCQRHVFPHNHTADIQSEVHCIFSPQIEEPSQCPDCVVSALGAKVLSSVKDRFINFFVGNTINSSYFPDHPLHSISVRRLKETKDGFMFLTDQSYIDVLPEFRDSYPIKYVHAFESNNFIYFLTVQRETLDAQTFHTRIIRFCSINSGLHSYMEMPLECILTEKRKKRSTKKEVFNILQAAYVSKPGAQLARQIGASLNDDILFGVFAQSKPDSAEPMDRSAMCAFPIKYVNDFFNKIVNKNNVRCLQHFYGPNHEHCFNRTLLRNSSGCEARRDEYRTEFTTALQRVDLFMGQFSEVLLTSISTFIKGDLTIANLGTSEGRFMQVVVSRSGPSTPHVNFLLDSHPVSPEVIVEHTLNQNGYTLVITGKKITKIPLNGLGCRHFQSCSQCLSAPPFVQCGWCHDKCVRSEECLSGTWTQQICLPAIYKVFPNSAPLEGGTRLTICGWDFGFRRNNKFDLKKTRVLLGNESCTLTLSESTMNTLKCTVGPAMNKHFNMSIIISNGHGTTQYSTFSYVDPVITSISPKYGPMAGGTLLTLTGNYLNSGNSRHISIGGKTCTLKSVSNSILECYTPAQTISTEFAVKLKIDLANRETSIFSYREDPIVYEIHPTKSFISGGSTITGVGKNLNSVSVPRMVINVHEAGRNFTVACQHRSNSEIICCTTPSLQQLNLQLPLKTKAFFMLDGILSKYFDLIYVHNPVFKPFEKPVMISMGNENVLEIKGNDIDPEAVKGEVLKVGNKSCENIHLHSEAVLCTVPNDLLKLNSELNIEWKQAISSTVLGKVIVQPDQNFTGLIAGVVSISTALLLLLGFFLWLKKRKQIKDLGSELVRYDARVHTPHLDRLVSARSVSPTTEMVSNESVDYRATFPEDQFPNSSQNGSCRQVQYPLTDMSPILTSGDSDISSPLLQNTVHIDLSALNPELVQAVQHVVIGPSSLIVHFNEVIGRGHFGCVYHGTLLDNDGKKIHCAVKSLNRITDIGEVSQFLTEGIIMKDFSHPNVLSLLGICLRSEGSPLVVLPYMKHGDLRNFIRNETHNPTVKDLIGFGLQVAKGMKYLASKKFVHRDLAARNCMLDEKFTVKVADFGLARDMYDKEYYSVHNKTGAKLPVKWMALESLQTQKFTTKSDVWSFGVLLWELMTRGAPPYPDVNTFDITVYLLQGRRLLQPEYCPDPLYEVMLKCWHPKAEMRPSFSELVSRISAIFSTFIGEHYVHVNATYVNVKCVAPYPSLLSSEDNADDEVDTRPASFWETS
Chain of Fak (Q05397 whole entry, species assumed): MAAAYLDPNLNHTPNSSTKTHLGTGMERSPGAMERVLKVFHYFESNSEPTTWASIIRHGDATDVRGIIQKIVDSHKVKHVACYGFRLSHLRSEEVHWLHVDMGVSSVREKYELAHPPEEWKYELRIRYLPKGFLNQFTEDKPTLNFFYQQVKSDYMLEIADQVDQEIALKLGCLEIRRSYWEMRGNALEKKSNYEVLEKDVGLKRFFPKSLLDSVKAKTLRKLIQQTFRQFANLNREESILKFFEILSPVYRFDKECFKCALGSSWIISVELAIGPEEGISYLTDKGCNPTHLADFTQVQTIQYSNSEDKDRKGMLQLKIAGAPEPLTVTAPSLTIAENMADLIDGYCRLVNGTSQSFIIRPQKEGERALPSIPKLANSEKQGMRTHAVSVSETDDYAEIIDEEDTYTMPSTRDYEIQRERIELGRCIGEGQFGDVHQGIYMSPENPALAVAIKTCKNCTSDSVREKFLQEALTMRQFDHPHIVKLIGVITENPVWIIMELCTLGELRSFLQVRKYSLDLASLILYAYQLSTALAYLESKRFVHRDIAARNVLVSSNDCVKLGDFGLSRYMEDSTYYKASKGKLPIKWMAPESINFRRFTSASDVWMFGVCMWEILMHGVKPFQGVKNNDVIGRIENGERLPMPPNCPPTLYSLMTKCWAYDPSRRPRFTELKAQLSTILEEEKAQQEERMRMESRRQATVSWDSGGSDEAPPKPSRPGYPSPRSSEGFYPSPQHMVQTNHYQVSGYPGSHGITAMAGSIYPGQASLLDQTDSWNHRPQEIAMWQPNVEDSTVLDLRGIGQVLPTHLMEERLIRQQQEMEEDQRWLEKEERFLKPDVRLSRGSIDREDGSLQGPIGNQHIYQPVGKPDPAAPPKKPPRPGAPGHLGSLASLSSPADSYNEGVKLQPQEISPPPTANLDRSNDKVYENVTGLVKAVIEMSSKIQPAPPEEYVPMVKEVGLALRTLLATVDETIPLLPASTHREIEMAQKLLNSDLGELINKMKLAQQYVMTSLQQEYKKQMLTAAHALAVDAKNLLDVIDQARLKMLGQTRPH
Chain of PDK1 (O15530 whole entry): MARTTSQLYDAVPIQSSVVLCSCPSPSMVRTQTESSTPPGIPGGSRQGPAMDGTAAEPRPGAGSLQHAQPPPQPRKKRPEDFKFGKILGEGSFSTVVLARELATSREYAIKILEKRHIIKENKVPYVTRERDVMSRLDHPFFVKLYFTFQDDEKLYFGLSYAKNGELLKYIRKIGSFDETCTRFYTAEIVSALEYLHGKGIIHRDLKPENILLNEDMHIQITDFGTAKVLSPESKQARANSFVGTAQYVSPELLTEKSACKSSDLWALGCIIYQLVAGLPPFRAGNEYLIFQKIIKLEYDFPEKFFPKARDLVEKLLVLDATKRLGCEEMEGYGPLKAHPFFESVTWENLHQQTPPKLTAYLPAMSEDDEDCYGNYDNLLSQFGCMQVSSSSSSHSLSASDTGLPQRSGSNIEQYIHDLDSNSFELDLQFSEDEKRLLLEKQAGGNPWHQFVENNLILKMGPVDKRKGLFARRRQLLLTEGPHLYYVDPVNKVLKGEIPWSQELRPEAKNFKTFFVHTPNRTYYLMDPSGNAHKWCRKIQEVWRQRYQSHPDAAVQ
Chain of FGFR3-K560E (P22607 397-806 K560E): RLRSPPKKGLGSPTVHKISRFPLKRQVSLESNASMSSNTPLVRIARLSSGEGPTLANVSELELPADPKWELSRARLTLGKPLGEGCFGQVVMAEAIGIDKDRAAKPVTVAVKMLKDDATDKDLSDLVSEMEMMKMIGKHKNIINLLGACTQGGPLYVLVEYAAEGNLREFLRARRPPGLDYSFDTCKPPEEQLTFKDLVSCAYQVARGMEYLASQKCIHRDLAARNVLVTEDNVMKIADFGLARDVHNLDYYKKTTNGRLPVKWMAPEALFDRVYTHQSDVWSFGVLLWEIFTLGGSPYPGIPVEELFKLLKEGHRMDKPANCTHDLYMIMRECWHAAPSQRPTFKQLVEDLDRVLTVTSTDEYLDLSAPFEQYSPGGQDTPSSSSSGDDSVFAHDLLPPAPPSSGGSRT
Chain of PKB (P31749 whole entry): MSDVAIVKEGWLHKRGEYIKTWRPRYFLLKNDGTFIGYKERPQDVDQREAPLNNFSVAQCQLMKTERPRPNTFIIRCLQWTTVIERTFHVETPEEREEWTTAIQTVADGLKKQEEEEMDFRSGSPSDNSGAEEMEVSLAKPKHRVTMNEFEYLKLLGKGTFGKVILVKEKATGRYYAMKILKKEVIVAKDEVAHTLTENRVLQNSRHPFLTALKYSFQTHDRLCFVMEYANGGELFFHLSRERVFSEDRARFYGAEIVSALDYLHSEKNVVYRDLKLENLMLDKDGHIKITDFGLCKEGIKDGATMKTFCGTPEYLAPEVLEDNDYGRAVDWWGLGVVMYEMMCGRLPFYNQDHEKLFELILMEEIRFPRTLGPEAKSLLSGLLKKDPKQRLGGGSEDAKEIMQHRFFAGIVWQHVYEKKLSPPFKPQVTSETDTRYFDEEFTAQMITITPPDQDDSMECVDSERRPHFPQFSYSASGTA

For the compound `CCc1nc2nc(Nc3ccc4nc(OCCN5CCOCC5)ccc4c3)nc(NC(C)(C)C)c2[nH]1` [QAP 1], the IC50 in [1] was above 10 µM; in assay [2] it was above 10 µM; in assay [3], 1.35 ± 0.05 µM; in assay [4], above 10 µM; in [5], above 10 µM; in assay [6], above 10 µM. The IC50 in assay [7], in assay [8], in assay [9], in assay [10], in [11] and in [12] was above 10 µM in each case. Besides, the IC50 in assay [13] was 1.7 ± 0.5 µM; in [14], above 10 µM; in assay [15], above 10 µM; in [16], above 10 µM; in assay [17] it was above 10 µM; in [18], above 10 µM. Besides, the IC50 in [19] was above 10 µM. For the same compound, the “competition of the interaction of biotinylated purine analogue 2 with topoisomerase II beta” value in assay [20] is reported as “abolished”.
